Consider eight compounds from patent US10219516B2, “Molecules having pesticidal utility, and intermediates, compositions, and processes, related thereto” (priority 2015, dated 2019).

Type in all cases: in vivo
In assay [1] the test system is Cabbage Looper (Trichoplusia ni, TRIPNI). In words: Bioassay on Cabbage Looper (CL), 128-well diet tray assay. As to conditions: Trichoplusia ni. The procedure, abridged:
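Mortality of second instar larvae exposed to diet coated with 50 μg/cm^2 compound (acetone-water 90:10 vehicle, dried); 25° C., 5–7 days.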

The subject of assay [2] is Yellow Fever Mosquito (Aedes aegypti, AEDSAE). In words: Bioassay on Yellow Fever Mosquito (YFM), 96-well plate larval assay. To be noted: for YFM rating: Yellow Fever Mosquito, 96-well plate larval assay; for YFM (Biological Results, rating): Species YFM (Yellow Fever Mosquito). The procedure, abridged: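 Each well was scored for mortality after 3 days at room temperature under a non-evaporative lid. Test molecules came from DMSO masters (4000 ppm stock) diluted with water/acetone 90:10 and dispensed into six replicate plates, which were then infested with roughly 1-day-old larvae in liver-powder water.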

Assay [3] deals with Beet Armyworm (Spodoptera exigua, LAPHEG). In words: Bioassay on Beet Armyworm (BAW), 128-well diet tray assay. Put shortly:
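Diet tray, 8 wells/compound; 50 μg/cm^2 applied to diet surface (90:10 acetone-water), dried. 1–5 L2 larvae/well; 25° C., 14:10 L:D, 5–7 d. Read-out: % mortality, mean of 8 wells.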

Where [4] appears, read: Cabbage Looper, 128-well diet tray assay, read-out: CL rating.
Setting [5] is: Beet Armyworm, 128-well diet tray assay, read-out: BAW rating.
Where [6] appears, read: Species CL (Cabbage Looper), read-out: CL (Biological Results, rating).
Setting [7] is: Species BAW (Beet Armyworm), read-out: BAW (Biological Results, rating).

The structures appear in SMILES notation. Where two headings read alike, the source gives them in different places.

On to `CN(C(=O)c1cc(NC(=O)[C@H]2[C@H](c3cc(Cl)cc(C(F)F)c3)C2(Cl)Cl)ccc1Cl)c1ccc(F)cc1` (relative stereo) [F592, 2-Chloro-5-(trans-2,2-dichloro-3-(3-chloro-5-(difluoromethyl)phenyl)cyclopropane-1-carboxamido)-N-(4-fluorophenyl)-N-methylbenzamide], for which the pest or weed control at 50 µg/cm2 in assay [1] (setting [4]) and in assay [3] (setting [5]) was 50 to 100% throughout. In addition, the YFM rating entry in assay [2] is on record as “A (80-100)”.

As for `CN(C(=O)c1cc(NC(=O)[C@H]2[C@H](c3cc(Cl)cc(Cl)c3)C2(Cl)Cl)ccc1Cl)c1ccc(F)cc1` [F169, 2-Chloro-5-((1R,3R)-2,2-dichloro-3-(3,5-dichlorophenyl)cyclopropane-1-carboxamido)-N-(4-fluorophenyl)-N-methylbenzamide], the pest or weed control at 50 µg/cm2 in assay [1] (setting [6]) and in assay [3] (setting [7]) was 50 to 100% each time. Further, the “YFM (Biological Results, rating)” value in assay [2] is on record as “A (80-100)”.

As to `O=C(Nc1ccc(Br)c(F)c1)c1cc(NC(=O)C2C(c3cc(Cl)cc(Cl)c3)C2(Cl)Cl)ccc1Cl` (stereo not drawn) [PF115, N-(4-Bromo-3-fluorophenyl)-2-chloro-5-(trans)-2,2-dichloro-3-(3,5-dichlorophenyl)cyclopropane-1-carboxamido)benzamide], the pest or weed control at 50 µg/cm2 in assay [1] (setting [4]) and in assay [3] (setting [5]) was 50 to 100% each time. The YFM rating result in assay [2] is reported as “A (80-100)”.

As to `O=C(Nc1ccc(S(=O)(=O)C(F)(F)F)cc1)c1cc(NC(=O)[C@H]2[C@H](c3cc(Cl)cc(Cl)c3)C2(Cl)Cl)ccc1Cl` (relative stereo) [PF19, trans-2-Chloro-5-(2,2-dichloro-3-(3,5-dichlorophenyl)cyclopropane-1-carboxamido)-N-(4-((trifluoromethyl)sulfonyl)phenyl)benzamide], the pest or weed control at 50 µg/cm2 in assay [1] (setting [4]) and in assay [3] (setting [5]) was 50 to 100% throughout. Moreover, in assay [2], the YFM rating result is recorded as “A (80-100)”.

On to `Nc1c(F)ccc(NC(=O)c2cc(NC(=O)[C@H]3[C@H](c4cccc(C(F)(F)F)c4)C3(Cl)Cl)ccc2Cl)c1F` (relative stereo) [F341, trans-N-(3-Amino-2,4-difluorophenyl)-2-chloro-5-(2,2-dichloro-3-(3-(trifluoromethyl)phenyl)cyclopropane-1-carboxamido)benzamide], for which the pest or weed control at 50 µg/cm2 in assay [1] (setting [6]) and in assay [3] (setting [7]) was 50 to 100% in each case. The “YFM (Biological Results, rating)” value in assay [2] is on record as “A (80-100)”.

`COc1cc([C@H]2[C@H](C(=O)Nc3ccc(Cl)c(C(=O)Nc4ccc(F)cc4)c3)C2(Cl)Cl)cc(F)c1Br` (relative stereo) [F539, 5-(trans-3-(4-Bromo-3-fluoro-5-methoxyphenyl)-2,2-dichlorocyclopropane-1-carboxamido)-2-chloro-N-(4-fluorophenyl)benzamide]: the pest or weed control at 50 µg/cm2 in assay [1] (setting [4]) and in assay [3] (setting [5]) was 50 to 100% in each case. The YFM rating result in assay [2] was “A (80-100)”.

Regarding `CC(C)(C)OC(=O)Nc1cccc(NC(=O)c2cc(NC(=O)[C@H]3[C@H](c4ccc(F)c(Cl)c4)C3(Cl)Cl)ccc2Cl)n1` (relative stereo) [F506, tert-Butyl (6-(2-chloro-5-(trans-2,2-dichloro-3-(3-chloro-4-fluorophenyl)cyclopropane-1-carboxamido)benzamido)pyridin-2-yl)carbamate], the pest or weed control at 50 µg/cm2 in assay [1] (setting [4]) and in assay [3] (setting [5]) was 50 to 100% throughout. Moreover, the YFM rating entry in assay [2] was “A (80-100)”.

With `O=C(Nc1nnn[nH]1)c1cc(NC(=O)[C@H]2[C@H](c3cc(Cl)cc(Cl)c3)C2(Cl)Cl)ccc1Cl` (relative stereo) [PF130, trans-2-Chloro-5-(2,2-dichloro-3-(3,5-dichlorophenyl)cyclopropane-1-carboxamido)-N-(1H-tetrazol-5-yl)benzamide], the pest or weed control at 50 µg/cm2 in assay [1] (setting [4]) and in assay [3] (setting [5]) was 50 to 100% in each case. Further, the YFM rating result in assay [2] is recorded as “B (More than 0-Less than 80)”.
